pIC50: −log10 of the molar value.
Assays:
[1] = tested on: phosphorylation of FLT3 and its down-stream effector STAT5; test: Western blotting of p-FLT3 and p-STAT5 in MV4-11 cells; type: cell-based; conditions: Homo sapiens; at 30 nM treatment, 3 hours, FLT3-ITD positive MV4-11 leukemia cells; read-out: inhibition activity against phosphorylation of FLT3 and its down-stream effector STAT5
Summary of the method: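 MV4-11 cells held overnight in IMDM with 0.1% FBS, then 3 million cells treated with compound for 3 h. Whole lysates immunoblotted for p-FLT3 (Tyr-591), p-STAT5 (Tyr-694) and actin. Band intensities at 30 nM compared to DMSO control; % inhibition = (1 − relative intensity) × 100.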

PDGFRα kinase = target: T1, PDGFRα kinase (Homo sapiens, UniProt P16234); test: PDGFRα kinase assay (AlphaScreen); type: biochemical; conditions: read-out: Ranking of IC50 values, PDGFRα
T1 construct: purchased SignalChem
T1 sequence (P16234 24-1089): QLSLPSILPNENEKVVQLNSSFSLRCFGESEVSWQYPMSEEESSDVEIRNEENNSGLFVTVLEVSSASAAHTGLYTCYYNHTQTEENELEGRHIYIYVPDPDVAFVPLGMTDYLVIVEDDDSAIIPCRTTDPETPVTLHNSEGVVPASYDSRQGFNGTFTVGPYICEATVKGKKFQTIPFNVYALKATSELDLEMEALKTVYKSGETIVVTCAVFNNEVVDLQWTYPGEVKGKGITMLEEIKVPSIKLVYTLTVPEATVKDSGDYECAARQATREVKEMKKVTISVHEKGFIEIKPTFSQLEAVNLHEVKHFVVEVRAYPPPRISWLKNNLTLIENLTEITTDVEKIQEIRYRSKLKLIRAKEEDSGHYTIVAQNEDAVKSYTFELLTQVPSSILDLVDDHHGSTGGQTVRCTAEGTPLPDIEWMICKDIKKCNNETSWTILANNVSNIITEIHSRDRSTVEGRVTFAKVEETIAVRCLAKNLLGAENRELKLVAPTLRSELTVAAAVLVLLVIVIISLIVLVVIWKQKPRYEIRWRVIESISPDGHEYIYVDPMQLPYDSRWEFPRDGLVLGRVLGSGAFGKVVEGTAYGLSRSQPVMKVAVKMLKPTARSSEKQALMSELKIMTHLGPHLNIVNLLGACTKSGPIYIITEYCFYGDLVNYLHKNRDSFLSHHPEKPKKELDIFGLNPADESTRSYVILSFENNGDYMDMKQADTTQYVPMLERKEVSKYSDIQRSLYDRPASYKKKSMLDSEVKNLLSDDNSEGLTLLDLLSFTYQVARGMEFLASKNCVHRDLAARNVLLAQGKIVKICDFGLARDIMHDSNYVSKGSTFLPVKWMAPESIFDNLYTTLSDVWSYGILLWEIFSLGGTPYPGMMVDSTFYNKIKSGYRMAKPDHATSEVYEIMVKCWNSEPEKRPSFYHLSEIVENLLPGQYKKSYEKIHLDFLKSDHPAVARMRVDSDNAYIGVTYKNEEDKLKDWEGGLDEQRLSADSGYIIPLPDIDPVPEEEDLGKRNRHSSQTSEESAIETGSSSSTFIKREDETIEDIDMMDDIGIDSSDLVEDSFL
Summary of the method: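 IC50 values came from duplicate serial dilutions, with product read by AlphaScreen. The reaction ran 30 min at 30 °C, then EDTA stop: 1.5 ng recombinant enzyme, biotin-poly(Glu4:Tyr1) substrate, 10 μM ATP, 10 mM MOPS pH 7.0, 10 mM MgCl2.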

FLT3 kinase = target: T2, FLT3 kinase (Homo sapiens, UniProt P36888); test: FLT3 kinase assay (AlphaScreen); type: biochemical; conditions: read-out: Ranking of IC50 values, FLT3
T2 construct: purchased SignalChem
T2 sequence (P36888 27-993): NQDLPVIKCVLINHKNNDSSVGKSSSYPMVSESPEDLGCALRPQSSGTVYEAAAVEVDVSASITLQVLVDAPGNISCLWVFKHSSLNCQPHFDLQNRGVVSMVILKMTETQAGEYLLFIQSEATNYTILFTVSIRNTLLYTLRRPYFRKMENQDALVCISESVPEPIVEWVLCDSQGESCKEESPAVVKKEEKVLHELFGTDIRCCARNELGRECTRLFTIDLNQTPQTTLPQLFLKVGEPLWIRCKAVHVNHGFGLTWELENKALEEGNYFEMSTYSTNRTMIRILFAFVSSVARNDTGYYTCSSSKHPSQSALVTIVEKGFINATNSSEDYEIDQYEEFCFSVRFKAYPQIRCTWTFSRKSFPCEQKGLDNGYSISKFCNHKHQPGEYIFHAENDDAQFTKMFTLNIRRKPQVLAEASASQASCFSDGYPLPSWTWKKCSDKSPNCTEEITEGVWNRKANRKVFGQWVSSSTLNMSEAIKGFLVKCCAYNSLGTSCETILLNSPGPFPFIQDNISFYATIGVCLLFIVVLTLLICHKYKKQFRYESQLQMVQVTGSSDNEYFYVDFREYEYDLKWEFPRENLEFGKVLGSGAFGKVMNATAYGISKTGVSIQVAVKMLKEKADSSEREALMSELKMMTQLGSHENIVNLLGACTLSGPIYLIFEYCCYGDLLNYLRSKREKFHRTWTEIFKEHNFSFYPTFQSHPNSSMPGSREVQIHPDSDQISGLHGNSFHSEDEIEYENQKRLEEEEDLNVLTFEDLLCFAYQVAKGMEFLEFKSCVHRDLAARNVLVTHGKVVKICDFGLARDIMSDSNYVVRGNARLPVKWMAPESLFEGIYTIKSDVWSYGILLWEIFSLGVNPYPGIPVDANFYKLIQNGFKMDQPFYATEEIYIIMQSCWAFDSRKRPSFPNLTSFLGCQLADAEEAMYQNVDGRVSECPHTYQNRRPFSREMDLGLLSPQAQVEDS
Summary of the method: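 AlphaScreen detection of biotin-poly(Glu4:Tyr1) phosphorylation by 1.5 ng recombinant FLT3 (10 μM ATP, pH 7.0 MOPS, 10 mM MgCl2; 30 °C, 30 min, EDTA quench). IC50 values derived from serially diluted compound tested in duplicate.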

pIC50 (PDGFRα kinase): 8.00 to 9.00 | pIC50 (FLT3 kinase): > 9.00
Structure (SMILES): Cn1ncc2ccc(-c3n[nH]c4c3Cc3sc(-c5ccc(N)nc5)cc3-4)cc21 [Compound 92, 5-(3-(1-methyl-1H-indazol-6-yl)-1,4-dihydro-thieno[2′,3′:4,5]cyclopenta [1,2-c]pyrazol-6-yl) pyridin-2-amine]
inhibition at 0.03 µM [1]: > 50%
